Values after ≈ are worked out from the molar mass of the structure shown. One block for each compound: values may come before it.
Assays:
[1] = test system: Acinetobacter baumannii NCTC 12156; assay: MIC; format: cell-based; conditions: caMHB, replicates listed
Method: (§1) Minimal inhibition concentration (MIC) assays were performed in accordance with CLSI standards, using cation-adjusted Mueller Hinton broth (caMHB; Sigma Aldrich) unless otherwise specified. Induction of pore expression in hyperporinated strains E. coli GKCW101 and GKCW102 was performed by addition of 0.1% (w/v) L-arabinose to cultures at OD600 ~ 0.3, with caMHB as the culture medium.

[2] = test system: Proteus mirabilis AR159; assay: MIC; format: cell-based; conditions: caMHB, replicates listed; for MIC: Proteus mirabilis, AR159
Method: as §1

[3] = test system: Enterobacter cloacae AR0038; assay: MIC; format: cell-based; conditions: caMHB, replicates listed; for MIC: Enterobacter cloacae, AR0038
Method: as §1

[4] = test system: Escherichia coli ATCC BAA-2469; assay: MIC; format: cell-based; conditions: caMHB, replicates listed; for MIC: Escherichia coli, ATCCBAA2469
Method: as §1

[5] = test system: Citrobacter freundii AR0116; assay: MIC; format: cell-based; conditions: caMHB, replicates listed; for MIC: Citrobacter freundii, AR0116
Method: as §1

[6] = test system: Enterobacter cloacae KPC114; assay: MIC; format: cell-based
Method: as §1

[7] = test system: Acinetobacter baumannii AR0275; assay: MIC; format: cell-based; conditions: caMHB, replicates listed; for MIC: Acinetobacter baumannii, AR0275
Method: as §1

[8] = test system: Klebsiella pneumoniae KPNIH1; assay: MIC; format: cell-based; conditions: caMHB, replicates listed
Method: as §1

[9] = test system: Klebsiella pneumoniae B454; assay: MIC; format: cell-based; conditions: caMHB, replicates listed
Method: as §1

[10] = test system: Escherichia coli NCTC 13441; assay: MIC; format: cell-based; conditions: caMHB, replicates listed
Method: as §1

[11] = test system: Pseudomonas aeruginosa NCTC 13437; assay: MIC; format: cell-based; conditions: caMHB, replicates listed
Method: as §1

[12] = test system: E. coli GKCW102 (EcPore); conditions: caMHB; biological replicates or their range
Method: (§2) To evaluate the engagement of EcPBP3 by a bicyclic peptide in whole cells lacking the outer membrane permeability barrier, peptides were screened in ‘hyperporinated’ E. coli strains in which a constitutively open FhuA pore (FhuAΔC/Δ4L, lacking N-terminal cork domain and external loops) was chromosomally expressed under control of an arabinose-inducible promoter.
as §1

[13] = test system: E. coli GKCW101 (WT); conditions: caMHB; biological replicates or their range
Method: as §2, §1

[14] = test system: Proteus mirabilis ATCC 43071; assay: MIC; format: cell-based; conditions: caMHB; replicates listed
Method: as §1

[15] = test system: Klebsiella pneumoniae ATCC 700603; assay: MIC; format: cell-based; conditions: caMHB; replicates listed
Method: as §1

[16] = test system: Escherichia coli UTI89; assay: MIC; format: cell-based; conditions: caMHB; replicates listed
Method: as §1

[17] = test system: Klebsiella pneumoniae ATCC 43816; assay: MIC; format: cell-based; conditions: caMHB; replicates listed
Method: as §1

[18] = test system: Citrobacter freundii B121; assay: MIC; format: cell-based; conditions: caMHB; replicates listed
Method: as §1

[19] = test system: Pseudomonas aeruginosa ATCC 27853; assay: MIC; format: cell-based; conditions: caMHB; replicates listed
Method: as §1

[20] = test system: Enterobacter cloacae B173; assay: MIC; format: cell-based; conditions: caMHB; replicates listed
Method: as §1

[21] = test system: Enterobacter cloacae AR0032; assay: MIC; format: cell-based; conditions: caMHB; replicates listed
Method: as §1

[22] = test system: E. coli ATCC 25922; assay: MIC, wild-type strain; format: cell-based, Escherichia coli
Method: as §1

Compound: C[C@@H](O)[C@H]1C(=O)N2C(C(=O)O)=C(S[C@@H]3CN[C@H](C(=O)N(C)C)C3)[C@H](C)[C@H]12 [Meropenem, reference compound]
MIC ([1]; Acinetobacter baumannii, NCTC12156): 1.1 µg/mL (≈ 2.87 µM)
MIC [2]: > 2 µg/mL
MIC [3]: > 2 µg/mL
MIC [4]: > 2 µg/mL
MIC [5]: > 2 µg/mL
MIC ([6]; Enterobacter cloacae, KPC114, read-out: MIC Enterobacter cloacae KPC114): > 2 µg/mL
MIC [7]: > 2 µg/mL

MIC [2]: 2.2 µg/mL (≈ 6.09 µM)
MIC [3]: > 2 µg/mL
MIC [8]: > 2 µg/mL
MIC ([9]; Klebsiella pneumoniae, B454): > 2 µg/mL
MIC [4]: > 2 µg/mL
MIC [5]: > 2 µg/mL
MIC ([10]; Escherichia coli, NCTC13441): > 2 µg/mL
MIC [7]: 2.2 µg/mL (≈ 6.09 µM)
MIC ([11]; Pseudomonas aeruginosa, NCTC13437): 2.2 µg/mL (≈ 6.09 µM)
Compound: C[C@H]1COc2c(N3CCN(C)CC3)c(F)cc3c(=O)c(C(=O)O)cn1c23 [Levofloxacin, reference compound]

Compound: ACSFPKCPWVEGCA* [Conjugate 2]
MIC E. coli GKCW102 (EcPore) [12]: 0.5 to 1 µg/mL
MIC E. coli GKCW101 (WT) [13]: 4 to 8 µg/mL
MIC Acinetobacter baumannii NCTC 12156 [1]: > 64 µg/mL
MIC Proteus mirabilis AR159 [2]: > 64 µg/mL
MIC Proteus mirabilis ATCC 43071 [14]: > 64 µg/mL
MIC Enterobacter cloacae AR0038 [3]: 8 µg/mL
MIC Klebsiella pneumoniae ATCC 700603 [15]: 16 µg/mL
MIC Escherichia coli UTI89 [16]: 8 µg/mL
MIC Klebsiella pneumoniae B454 [9]: 16,32 μg mL-1
MIC Escherichia coli ATCC BAA-2469 [4]: 8,8 μg mL-1
MIC Citrobacter freundii AR0116 [5]: 8 µg/mL
MIC Klebsiella pneumoniae ATCC 43816 [17]: 8,16 μg mL-1
MIC Citrobacter freundii B121 [18]: 8 µg/mL
MIC Enterobacter cloacae KPC114 ([6]; caMHB, replicates listed): 8 µg/mL
MIC Pseudomonas aeruginosa ATCC 27853 [19]: > 64 µg/mL
MIC Enterobacter cloacae B173 [20]: 16 µg/mL
MIC Enterobacter cloacae AR0032 [21]: 4 µg/mL
MIC Escherichia coli NCTC 13441 [10]: 4,8 μg mL-1
MIC Acinetobacter baumannii AR0275 [7]: > 64 µg/mL
MIC Pseudomonas aeruginosa NCTC 13437 [11]: > 64 µg/mL
MIC E. coli ATCC 25922 ([22]; MHB, biological replicates or their range): 1 to 2 µg/mL
MIC Escherichia coli ATCC 25922 ([22]; caMHB, replicates listed, number in brackets): 2,8 μg mL-1
